Reference: patent US9593108B2, “Compounds and methods for antiviral treatment” (PTC Therapeutics, Inc., priority 2009, dated 2017)
pIC50: −log10 of the molar value.

Assays:
[1] = system: HCV replicon RNA (GenBank Accession No. AJ242654); assay: HCV Replicon Assay (replicon RNA reduction and/or Fluc reporter signal); format: cell-based, Hepatitis C virus; conditions: Hepatitis C virus, 72 h, replicon-containing cells cultured with test compound for up to 3 days
In short: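 IC50 values mostly reflect the drop in replicon RNA, though Fluc reporter signal may also be used. Compound incubated with cells carrying the bicistronic replicon for as long as 3 days; interferon served as positive control.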

CC(C)(C)NS(=O)(=O)c1ccc(-c2c(C(N)=O)c3cc(C(F)(F)F)cnc3n2C2CCC2)cc1 [Cpd 403, 2-[4-(tert-butylsulfamoyl)phenyl]-1-cyclobutyl-5-(trifluoromethyl)-1H-pyrrolo[2,3-b]pyridine-3-carboxamide]
melting point: 255 to 257 °C
pIC50 [1]: > 6.30

N#Cc1c(-c2ccc(S(=O)(=O)NC(CF)CF)cc2)n(C2CCC2)c2ncc(Cl)cc12 [Cpd 8, 4-(5-chloro-3-cyano-1-cyclobutyl-1H-pyrrolo[2,3-b]pyridin-2-yl)-N-(1,3-difluoropropan-2-yl)benzenesulfonamide]
melting point: 234 to 238 °C
pIC50 [1]: 5.70 to 6.30

C[C@H](NS(=O)(=O)c1ccc(-c2c(C#N)c3cc(C4CC4)cnc3n2C2CCC2)cc1)C(F)(F)F [Cpd 115, 4-(3-cyano-1-cyclobutyl-5-cyclopropyl-1H-pyrrolo[2,3-b]pyridin-2-yl)-N-[(2S)-1,1,1-trifluoropropan-2-yl]benzenesulfonamide]
melting point: 196 to 203 °C
pIC50 [1]: 5.70 to 6.30

Cc1cnc2c(c1)c(C#N)c(-c1ccc(S(=O)(=O)N[C@@H](C)C(F)(F)F)cn1)n2-c1cccc(F)c1 [Cpd 502, 6-[3-cyano-1-(3-fluorophenyl)-5-methyl-1H-pyrrolo[2,3-b]pyridin-2-yl]-N-[(2S)-1,1,1-trifluoropropan-2-yl]pyridine-3-sulfonamide]
melting point: 238 to 240 °C
pIC50 [1]: > 6.30

Cc1cnc2c(c1)c(C#N)c(-c1ccc(S(=O)(=O)NC3(C)CC3)cc1)n2C1CCC1 [Cpd 77, 4-(3-cyano-1-cyclobutyl-5-methyl-1H-pyrrolo[2,3-b]pyridin-2-yl)-N-(1-methylcyclopropyl)benzenesulfonamide]
melting point: 188 to 190 °C
pIC50 [1]: > 6.30

C[C@H](NS(=O)(=O)c1ccc(-c2c(C#N)c3cc(-c4cccs4)cnc3n2C2CCC2)nc1)C(F)(F)F [Cpd 237, 6-[3-cyano-1-cyclobutyl-5-(thiophen-2-yl)-1H-pyrrolo[2,3-b]pyridin-2-yl]-N-[(2S)-1,1,1-trifluoropropan-2-yl]pyridine-3-sulfonamide]
melting point: 206 to 208 °C
pIC50 [1]: 5.30 to 5.70

CC[C@H](NS(=O)(=O)c1ccc(-c2c(C#N)c3cc(Cl)cnc3n2C2CCCC2)nc1)C(F)(F)F [Cpd 233, 6-(5-chloro-3-cyano-1-cyclopentyl-1H-pyrrolo[2,3-b]pyridin-2-yl)-N-[(2S)-1,1,1-trifluorobutan-2-yl]pyridine-3-sulfonamide]
melting point: 180 to 185 °C
pIC50 [1]: > 6.30

CCn1c(-c2ccc(S(=O)(=O)N[C@@H](C)C(F)(F)F)cn2)c(C#N)c2cc(C)cnc21 [Cpd 491, 6-(3-cyano-1-ethyl-5-methyl-1H-pyrrolo[2,3-b]pyridin-2-yl)-N-[(2S)-1,1,1-trifluoropropan-2-yl]pyridine-3-sulfonamide]
melting point: 168 to 171 °C
pIC50 [1]: > 6.30

Cc1cnc2c(c1)c(C#N)c(-c1ccc(S(=O)(=O)N[C@@H](C)C(F)(F)F)cc1)n2C1CCC1 [Cpd 73, 4-(3-cyano-1-cyclobutyl-5-methyl-1H-pyrrolo[2,3-b]pyridin-2-yl)-N-[(2S)-1,1,1-trifluoropropan-2-yl]benzenesulfonamide]
melting point: 197 to 198 °C
pIC50 [1]: > 6.30

COc1cnc2c(c1)c(C#N)c(-c1ccc(S(=O)(=O)N[C@@H](C)C(F)(F)F)cn1)n2-c1cnccn1 [Cpd 365, 6-[3-cyano-5-methoxy-1-(pyrazin-2-yl)-1H-pyrrolo[2,3-b]pyridin-2-yl]-N-[(2S)-1,1,1-trifluoropropan-2-yl]pyridine-3-sulfonamide]
melting point: 220 to 225 °C
pIC50 [1]: > 6.30

CC(C)(C)NS(=O)(=O)c1ccc(-c2c(C#N)c3cc(C(F)(F)F)cnc3n2-c2cnccn2)nc1 [Cpd 526, N-tert-butyl-6-[3-cyano-1-(pyrazin-2-yl)-5-(trifluoromethyl)-1H-pyrrolo[2,3-b]pyridin-2-yl]pyridine-3-sulfonamide]
melting point: 214.2 to 215.4 °C
pIC50 [1]: > 6.30

N#Cc1c(-c2ccc(S(=O)(=O)NC3(C(F)(F)F)CC3)cn2)n(C2CCCC2)c2cc(Cl)ncc12 [Cpd 83, 6-(6-chloro-3-cyano-1-cyclopentyl-1H-pyrrolo[3,2-c]pyridin-2-yl)-N-[1-(trifluoromethyl)cyclopropyl]pyridine-3-sulfonamide]
melting point: 225 to 227 °C
pIC50 [1]: > 6.30

CCc1cnc2c(c1)c(C(N)=O)c(-c1ccc(S(=O)(=O)NC3(C(F)(F)F)CC3)cc1)n2C1CCC1 [Cpd 379, 1-cyclobutyl-5-ethyl-2-(4-{[1-(trifluoromethyl)cyclopropyl]sulfamoyl}phenyl)-1H-pyrrolo[2,3-b]pyridine-3-carboxamide]
melting point: 173 to 179 °C
pIC50 [1]: > 6.30

Cc1cnc2c(C#N)c(-c3ccc(S(=O)(=O)NC(C)(C)C)cn3)n(C3CCCC3)c2c1 [Cpd 175, N-tert-butyl-6-(3-cyano-1-cyclopentyl-6-methyl-1H-pyrrolo[3,2-b]pyridin-2-yl)pyridine-3-sulfonamide]
melting point: 267 to 269 °C
pIC50 [1]: > 6.30

C[C@H](NS(=O)(=O)c1ccc(-c2c(C#N)c3cc(C(F)(F)F)cnc3n2C2CC2)nc1)C(F)(F)F [Cpd 360, 6-[3-cyano-1-cyclopropyl-5-(trifluoromethyl)-1H-pyrrolo[2,3-b]pyridin-2-yl]-N-[(2S)-1,1,1-trifluoropropan-2-yl]pyridine-3-sulfonamide]
melting point: 194 to 196 °C
pIC50 [1]: > 6.30

CC(C)(NS(=O)(=O)c1ccc(-c2c(C(N)=O)c3cc(C(F)(F)F)cnc3n2C2CCCC2)nc1)C(F)(F)F [Cpd 406, 1-cyclopentyl-5-(trifluoromethyl)-2-{5-[(1,1,1-trifluoro-2-methylpropan-2-yl)sulfamoyl]pyridin-2-yl}-1H-pyrrolo[2,3-b]pyridine-3-carboxamide]
melting point: 244 to 246 °C
pIC50 [1]: > 6.30

Cc1ccc2c(C#N)c(-c3ccc(S(=O)(=O)NC4(C(F)(F)F)CC4)cn3)n(C3CCC3)c2n1 [Cpd 94, 6-(3-cyano-1-cyclobutyl-6-methyl-1H-pyrrolo[2,3-b]pyridin-2-yl)-N-[1-(trifluoromethyl)cyclopropyl]pyridine-3-sulfonamide]
melting point: 230 to 236 °C
pIC50 [1]: > 6.30

CC(C)NS(=O)(=O)c1cnc(-c2c(C#N)c3cccnc3n2C2CCC2)nc1 [Cpd 36, 2-(3-cyano-1-cyclobutyl-1H-pyrrolo[2,3-b]pyridin-2-yl)-N-(propan-2-yl)pyrimidine-5-sulfonamide]
melting point: 197 to 199 °C
pIC50 [1]: > 6.30

N#Cc1c(-c2ccc(S(=O)(=O)NC(CF)CF)cn2)n(C2CCCC2)c2cc(Cl)ncc12 [Cpd 82, 6-(6-chloro-3-cyano-1-cyclopentyl-1H-pyrrolo[3,2-c]pyridin-2-yl)-N-(1,3-difluoropropan-2-yl)pyridine-3-sulfonamide]
melting point: 231 to 233 °C
pIC50 [1]: > 6.30

C[C@H](NS(=O)(=O)c1ccc(-c2c(C#N)c3cc(OC(F)F)cnc3n2C2CCC2)nc1)C(F)(F)F [Cpd 122, 6-[3-cyano-1-cyclobutyl-5-(difluoromethoxy)-1H-pyrrolo[2,3-b]pyridin-2-yl]-N-[(2S)-1,1,1-trifluoropropan-2-yl]pyridine-3-sulfonamide]
melting point: 155 to 156 °C
pIC50 [1]: > 6.30
